Source: patent US11400082B2, “Methods of treating elevated plasma cholesterol” (Montréal Heart Institute, priority 2017, dated 2022)
Values joined by “and” are separate entries in the source; they are usually repeats but may differ in a detail not shown here. Equal entries are not always repeated. Where two headings read alike, the source gives them in different places.

Tests used:
LDLR protein [1] = assay: Western blot analysis, relative quantification of LDLR protein levels; format: cell-based, human; settings: overnight, hepatoma cells (HepG2, FIG. 13), normalized to actin, vehicle (DMSO) = 1
Protocol: (§1) For sterol-regulated conditions, HepG2 cells were incubated in 5% LPDS, 50 μM mevastatin, and 50 μM mevalonolactone in the absence (-sterols) or presence of 1 μg/ml 25-hydroxycholesterol and 10 μg/ml cholesterol (+sterols). For inhibitor treatments HepG2 cells were treated with DMSO or 10 μM compounds 2 in combination with U0126 (25 μM, catalog no. 9903, Cell Signaling Technology), Cycloheximide (CHX; 20 μg/ml, catalog no. C7698, Sigma-Aldrich), PD153035 (20 μM, catalog no. 14879, Cayman Chemical), bisindolylmaleimide I (BIM; 10 μM, catalog no. 13298, Cayman Chemical), H-89 (10 μM, catalog no. 10010556, Cayman Chemical), Dorsomorphin (5 μM, catalog no. 11967, Cayman Chemical) or 5-Azacytidine (10 μM, catalog no. A2385, Sigma-Aldrich).
Treated cells from Example 28 were washed three times in phosphate-buffered saline (PBS) and lysed in radioimmune precipitation assay buffer (50 mM Tris/HCl, pH 8.0, 1% (v/v) Nonidet P-40, 0.5% sodium deoxycholate, 150 mM NaCl, and 0.1% (v/v) SDS) supplemented with a complete protease inhibitor mixture (catalog no. 11 697 498 001, Roche Applied Science). Proteins were separated by 8% SDS polyacrylamide gel electrophoresis, blotted on nitrocellulose membranes (Bio-Rad), and blocked for 1 h in Tris-buffered saline-Tween 20 (TBS-T; 50 mM Tris-HCl, pH 7.5, 150 mM NaCl, 0.1% Tween 20) containing 5% nonfat dry milk. Membranes were then incubated overnight in TBS-T supplemented with 1% nonfat milk and the indicated antibodies; goat anti-human LDLR (1:1000; catalog no. AF2148, R&D Systems), rabbit anti-actin (1:5000; catalog no. A2066, Sigma-Aldrich). Appropriate HRP-conjugated secondary antibodies (1:10,000; GE healthcare) were used for detection using the Western Lightning Ultra chemiluminescence kit (catalog no. NEI112001EA, PerkinElmer Life Sciences) and BioFlex EC Films (catalog no. CLEC810, InterScience). Unsaturated films were numerized using the high resolution CanoScan 9000F scanner and corresponding bands were quantified using the ImageJ software (NIH). Relative quantification of LDLR protein levels were normalized to that of actin and compared to vehicle (DMSO) herein determined as 1.

[2] = Cell viability assay (MTT); format: cell-based; settings: human; overnight incubation, viability relative to DMSO
Protocol: Following incubation, media was replaced and cells incubated for 4 h with 100 μL of phenol red-free DMEM containing 0.5 mg/mL of MTT (3-[4,5-dimethylthiazol-2-yl]-2,5-diphenyltetrazolium bromide; thiazolyl blue; catalog no. M5655, Sigma-Aldrich). Afterwards, media was removed and converted dye solubilized with 100 μL acidic isopropanol (0.06 N) and absorbance measured at a wavelength of 570 nm with background subtraction at 650 nm. Arbitrary units of cell viability of a given example were determined relative to equal volume of DMSO (vehicle) for each concentration used.

LDLR protein [3] = format: cell-based, human
Protocol: as §1
Treated cells from Example 28 were washed three times in phosphate-buffered saline (PBS) and lysed in radioimmune precipitation assay buffer (50 mM Tris/HCl, pH 8.0, 1% (v/v) Nonidet P-40, 0.5% sodium deoxycholate, 150 mM NaCl, and 0.1% (v/v) SDS) supplemented with a complete protease inhibitor mixture (catalog no. 11 697 498 001, Roche Applied Science). […] Unsaturated films were numerized using the high resolution CanoScan 9000F scanner and corresponding bands were quantified using the ImageJ software (NIH). Relative quantification of LDLR protein levels were normalized to that of actin and compared to vehicle (DMSO) herein determined as 1.

SMILES	LDLR Fold Change 10 nM (LDLR protein [1])	LDLR Fold Change 10 μM (LDLR protein [1])	further results
COC(=O)c1ncc(COCc2ccc(OC)cc2)c2c1OC(C)(C)OC2 [Compound 10, methyl 5-((4-methoxybenzyloxy)methyl)-2,2-dimethyl-4H-[1,3] dioxino[4,5-c]pyridine-8-carboxylate]	1.7	1.2	
COC(=O)c1ncc(C(=O)NCc2ccc(F)c(Cl)c2)c2c1OC(C)(C)OC2 [Compound 25, 2,2-dimethyl-4H-[1,3]dioxino[4,5-c]pyridine-5,8-dicarboxylic acid 5-(3-chloro-4-fluoro-benzylamide)-8-(methyl ester)]		1.9	
COc1c(C(=O)NO)ncc(C(=O)NCc2ccc(F)cc2)c1CO [Compound 19, 4-hydroxymethyl-3-methoxy-pyridine-2,5-dicarboxylic acid 5-(4-fluoro-benzylamide) 2-hydroxyamide]			CC50 [2]: 6.6 µM
COc1ccc(COCc2cnc(C(=O)O)c(O)c2C)cc1 [Compound 7, 5-(4-methoxy-benzyloxymethyl)-3-hydroxy-4-methyl-pyridine-2-carboxylic acid]	1.7	1.9 and 2-3	
COC(=O)c1ncc(COCc2ccc(OC)cc2)c(C)c1O [Compound 8, 5-(4-methoxy-benzyloxymethyl)-3-hydroxy-4-methyl-pyridine-2-carboxylic acid methyl ester]	1.7	1.7	
O=C(NCc1ccc(F)c(Cl)c1)c1cnc(C(=O)NO)c(O)c1CO [Compound 4, N^5-(3-chloro-4-fluorobenzyl)-N^2,3-dihydroxy-4-(hydroxymethyl)pyridine-2,5-dicarboxamide]		2.7	
O=C(NO)c1ncc(CCc2ccc(F)cc2)c(CO)c1O [Compound 6, 5-[2-(4-fluoro-phenyl)-ethyl]-3-hydroxy-4-hydroxymethyl-pyridine-2-carboxylic acid hydroxamide]	1.5	2.3	CC50 [2]: 39 µM
C[C@@H]1C[C@@H]([C@H](O)CC2CC(=O)NC(=O)C2)C(=O)[C@@H](C)C1 [CHX, Cycloheximide]			effect of combined inhibitor on increase of LDLR by Compound 2 (LDLR protein [3]; HepG2 cells, 10 μM Compound 2 in combination with inhibitor (U0126 25 μM, CHX 20 μg/ml), FIG. 19): block increase of LDLR by Compound 2
COc1ccc(COCc2cnc(C)c3c2COC(C)(C)O3)cc1 [Compound 9, 5-((4-methoxybenzyloxy)methyl)-2,2,8-trimethyl-4H-[1,3]dioxino[4,5-c]pyridine]		1.4	
CC1(C)OCc2c(CNCc3ccc(F)c(Cl)c3)cnc(C(=O)NO)c2O1.Cl [Compound 5, 5-{(1-3-chloro-4-fluoro-phenyl)aminomethyl} 2,2-dimethyl-4H-[1,3]dioxino[4,5-c]pyridine-8-carboxylic acid hydroxamide]		2.4	
Cc1ncc(COc2ccc(F)cc2)c(CO)c1O [Compound 27, 5-((4-fluorophenoxy)methyl)-3-hydroxy-4-(hydroxymethyl)picoline]	0.6	1.2	
O=C(NO)c1ncc(COc2ccc(F)c(Cl)c2)c(CO)c1O [Compound 3, 5-(3-chloro-4-fluoro-phenoxymethyl)-3-hydroxy-4-hydroxymethyl-pyridine-2-carboxylic acid hydroxyamide]		5.6	CC50 [2]: 11 µM
O=C(NO)c1ncc(CNc2ccc(F)cc2)c(CO)c1O [Compound 1, 5-[(4-fluoro-phenylamino)-methyl]-3-hydroxy-4-hydroxymethyl-pyridine-2-carboxylic acid hydroxyamide]		6.9	CC50 [2]: 120 µM
Cc1ncc(COc2ccc(F)cc2)c2c1OC(C)(C)OC2 [Compound 26, 5-((4-fluorophenoxy)methyl)-2,2-dimethyl-4H-[1,3]dioxino[4,5-c]picoline]	1	1.5	
N#CC(=C(/N)Sc1ccccc1N)/C(C#N)=C(\N)Sc1ccccc1N [Compound U0126, U0126]			effect of combined inhibitor on increase of LDLR by Compound 2 (LDLR protein [3]): block increase of LDLR by Compound 2
